One data set has as its system B.1.1.7 SARS-CoV-2. Put plainly: Antiviral assay in Calu3 cells. In kind it is cell-based.
Data set [1] concerns −1 PRF signal of SARS-CoV-2. The format is cell-based.
Data set [2] has as its system SARS-CoV-2. The data set is described as follows: Antiviral plaque assay in Vero-E6 cells. In kind it is cell-based.
Another data set relates to SARS-CoV-2 viral RNA. The format is cell-based.
In the next data set the test system is SARS-CoV-2 nucleocapsid. In kind it is cell-based.
Data set [3] is described as follows: in vitro. To be noted: human.
Data set [4] in a line: in vitro. The following applies: African green monkey.
A short description of data set [5]: in vitro. The following applies: dog.
The next data set relates to SARS-CoV-2 GFP. In kind it is cell-based.
The nature of data set [6]: in vitro. The following applies: human. This is another data set of the same source.
In another data set the test system is Influenza A virus (H1N1). Put plainly: Antiviral activity against Influenza A virus. The format is cell-based, Influenza virus A/Netherlands/602/2009.
A further data set has as its system A549 cells. In kind it is cell-based. The following applies: 600 μM.
A further data set concerns Mucilair tissues. In kind it is cell-based, human. The following applies: MTS assay at 96hpi, 30 μg/tissue. (In general: Tetrazolium assays rely on reduction of a dye to a coloured formazan, in cell work by metabolically active cells.)
The subject of the next data set is HCoV-229e. The data set is described as follows: microbe, parasite or virus in culture. In kind it is cell-based. The following applies: Human coronavirus 229E.
Data set [7] has as its system SARS-CoV-2. In kind it is cell-based.
The test system of the next data set is Vero-E6 cells. To be noted: listed as of SARS-CoV-2 B.1.1.7 (Alpha).
The mark [8] stands for this setting: Severe acute respiratory syndrome coronavirus 2, Calu-3, read-out: EC50 (95% CI).
Where [9] appears, read: Severe acute respiratory syndrome coronavirus 2, Vero C1008, read-out: EC50 (95% CI).
[10] abbreviates: Severe acute respiratory syndrome coronavirus 2, Vero C1008, read-out: EC90 (95% CI), SARS-CoV-2 B.1.1.7 (Alpha), Vero-E6.
[11] abbreviates: CC50, row of SARS-CoV-2 B.1.1.7 (Alpha).

Like-named read-outs stand apart in the source and are kept apart here.

As for `CCNCC1CCN(c2c(F)cc3c(=O)c(C(=O)O)cn(CC)c3c2F)C1` (stereo not shown) [Merafloxacin], the figures for the EC50 in the data set on B.1.1.7 SARS-CoV-2 (setting [8]) and in the data set on SARS-CoV-2 [2] (setting [9]) were 21.8 µM and 23.7 µM, respectively. Besides, in [1], the “−1 PRF efficiency” value was “reduction in the −1 PRF efficiency”. For the same compound, in the data set on SARS-CoV-2 [2] (setting [10]), the EC90 is 116 µM. In the data set with SARS-CoV-2 viral RNA, the “viral RNA replication” value is “inhibition of viral RNA replication”. For the same compound, in the data set on SARS-CoV-2 nucleocapsid, the “viral protein production (nucleocapsid over alpha tubulin)” value is given as “decrease in viral protein production”. For the same compound, the CC50 in the data set “in vitro [3]” and in the data set “in vitro [4]” (setting [11]) was > 100 µM throughout.
Consider `CN[C@@H]1[C@@H](O)[C@@H](O[C@@H]2[C@@H](O)[C@H](O[C@H]3O[C@H]([C@@H](C)O)[C@@H](O)[C@H](O)[C@H]3N)[C@@H](N)C[C@H]2N)OC[C@]1(C)O` [Geneticin], for which the EC50 in the data set with B.1.1.7 SARS-CoV-2 (setting [8]) worked out at 164 µM; with SARS-CoV-2 [2] (setting [9]), 47.2 µM; with SARS-CoV-2 [2] (Severe acute respiratory syndrome coronavirus 2, Vero C1008, read-out: EC50 (95% CI), SARS-CoV-2 B.1.160, Vero-E6) it was 31.6 µM; in the data set on SARS-CoV-2 [2] (Severe acute respiratory syndrome coronavirus 2, Vero C1008, read-out: EC50 (95% CI), SARS-CoV-2 B.1.177, Vero-E6), 102 µM; with SARS-CoV-2 [2] (Severe acute respiratory syndrome coronavirus 2, Vero C1008, read-out: EC50 (95% CI), SARS-CoV-2 B.1.258, Vero-E6), 42.4 µM; in the data set with SARS-CoV-2 [2] (Severe acute respiratory syndrome coronavirus 2, Vero C1008, read-out: EC50 (95% CI), SARS-CoV-2 B.1.617.2 (Delta), Vero-E6) it was 32.8 µM. The EC50 in the data set on SARS-CoV-2 [2] (Severe acute respiratory syndrome coronavirus 2, Vero C1008, read-out: EC50 (95% CI), SARS-CoV-2 BA.1 (Omicron), Vero-E6) is 25.7 µM; in the data set on Influenza A virus (H1N1) (read-out: EC50 (95% CI)) it was > 600 µM; with HCoV-229e (Huh-7, read-out: EC50 (95% CI)), 7.21 µM. Further, the CC50 is 5840 µM in the data set “in vitro [5]”; 684 µM in the data set “in vitro [6]”; > 600 µM in the data set “in vitro [3]”; 3950 µM in “in vitro [4]” (setting [11]); 3950 µM in the data set “in vitro [4]” (CC50, row of SARS-CoV-2 B.1.351 (Beta)); 3950 µM in the data set “in vitro [4]” (CC50, row of SARS-CoV-2 B.1.617.2 (Delta)). In “in vitro [4]” (CC50, row of SARS-CoV-2 BA.1 (Omicron)), this compound yielded a CC50 of 934 µM. For the same compound, the “GFP intensity in the infected cells” value in the data set on SARS-CoV-2 GFP is recorded as “significantly reduced”. Further, in the data set with SARS-CoV-2 GFP, the “number of infected (GFP positive) cells” value was “marked reduction in the number of infected cells”. For the same compound, the “−1 PRF efficiency” value in [1] was “reduction in the −1 PRF efficiency”. The EC90 with SARS-CoV-2 [2] (setting [10]) turned out to be 245 µM; in the data set with SARS-CoV-2 [2] (Severe acute respiratory syndrome coronavirus 2, Vero C1008, read-out: EC90 (95% CI), SARS-CoV-2 B.1.160, Vero-E6), 150 µM; with SARS-CoV-2 [2] (Severe acute respiratory syndrome coronavirus 2, Vero C1008, read-out: EC90 (95% CI), SARS-CoV-2 B.1.177, Vero-E6), 407 µM; in the data set with SARS-CoV-2 [2] (Severe acute respiratory syndrome coronavirus 2, Vero C1008, read-out: EC90 (95% CI), SARS-CoV-2 B.1.258, Vero-E6) it was 163 µM; with SARS-CoV-2 [2] (Severe acute respiratory syndrome coronavirus 2, Vero C1008, read-out: EC90 (95% CI), SARS-CoV-2 B.1.351 (Beta), Vero-E6) it was 542 µM; in the data set with SARS-CoV-2 [2] (Severe acute respiratory syndrome coronavirus 2, Vero C1008, read-out: EC90 (95% CI), SARS-CoV-2 B.1.617.2 (Delta), Vero-E6), 201 µM. Further, the EC90 in the data set on SARS-CoV-2 [2] (Severe acute respiratory syndrome coronavirus 2, Vero C1008, read-out: EC90 (95% CI), SARS-CoV-2 BA.1 (Omicron), Vero-E6) was 155 µM; in the data set on HCoV-229e (Huh-7, read-out: EC90 (95% CI)), 23.9 µM. Also, the “viral RNA replication” value in the data set with SARS-CoV-2 viral RNA is “inhibition of viral RNA replication”. Also, the “viral protein production (nucleocapsid over alpha tubulin)” value in the data set with SARS-CoV-2 nucleocapsid was “decrease in viral protein production”. In addition, the “antiviral activity against Influenza A virus (H1N1)” value in the data set on Influenza A virus (H1N1) (unrelated virus) was “lack of activity”. The “protein synthesis in the cell” value in the data set on A549 cells is listed as “not impaired”. For the same compound, the “viability of the tissues” value with Mucilair tissues is “without a decrease in viability”. Besides, the “protection from viral infection (apical viral RNA and plaque titre)” value in the data set on SARS-CoV-2 [7] is on record as “significant protection from viral infections”.
For Sotrovimab, the EC50 was found to be 0.0041 µM in the data set on B.1.1.7 SARS-CoV-2 (read-out: EC50 (95% CI)) and 0.00013 µM with SARS-CoV-2 [2] (read-out: EC50 (95% CI)). For the same compound, the CC50 in the data set on Calu3 cells and with Vero-E6 cells was > 0.68 µM throughout. Besides, in the data set on SARS-CoV-2 [2] (read-out: EC90 (95% CI), SARS-CoV-2 B.1.1.7 (Alpha), Vero-E6), the EC90 worked out at 0.0042 µM.

The record behind these values is paper PMC9617636 (Antiviral Research, 2022).
